In patent US10633375B2, “Oxopicolinamide derivative, preparation method therefor and pharmaceutical use thereof” (Jiangsu Hengrui Medicine Co., Ltd., priority 2016, dated 2020):

biological target: Coagulation Factor XIa protease (Homo sapiens (Human), UniProt P03951); experiment: Inhibition of Factor XIa detected by absorption photometry; assay type: biochemical; details: absorbance at 405 nm, 10 minutes at 37° C.
Protocol: Test Example 1: Biological Activity of the Compounds of the Present Invention on
The Inhibition of Factor XIa Detected by Absorption Photometry
1. Experimental Materials
Enzyme: Coagulation Factor XIa protease (Abcam, Art. No ab62411)
Substrate: Coagulation Factor XIa specific substrate (HYPHEN1310 med, Art. No. Biophen cs-21(66))
2. Experimental Procedure
20 mM of test compound dissolved in 100% DMSO was diluted to 200, 20, 2, 0.2, 0.02, 0.002 μM with 100% DMSO; 1 μl of the compound was added to each well in a 384-well plate, blank and control wells were replaced with DMSO. The plate was centrifuged to remove the compound to the bottom. 10 μl (2.5 μg/ml) of FXIa enzyme solution was added to each well, and 10 μl of buffer was added to the blank well. The plate was centrifuged to remove the enzyme solution to the bottom.
Finally, 10 μl of 2 mM substrate were added to each well, and the plate was centrifuged to remove the substrate solution to the bottom.
The plate was incubated for 10 minutes at 37° C.; and then the absorbance was measured at 405 nm.

Chain of Coagulation Factor XIa protease (P03951 388-625): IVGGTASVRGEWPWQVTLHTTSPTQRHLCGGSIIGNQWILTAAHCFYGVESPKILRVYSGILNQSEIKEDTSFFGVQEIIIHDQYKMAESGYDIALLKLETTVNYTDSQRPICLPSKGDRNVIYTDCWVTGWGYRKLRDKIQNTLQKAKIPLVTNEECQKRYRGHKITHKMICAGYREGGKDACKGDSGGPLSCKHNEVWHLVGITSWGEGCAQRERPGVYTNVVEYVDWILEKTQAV
Chain of Coagulation Factor XIa protease (P03951 19-387 partner): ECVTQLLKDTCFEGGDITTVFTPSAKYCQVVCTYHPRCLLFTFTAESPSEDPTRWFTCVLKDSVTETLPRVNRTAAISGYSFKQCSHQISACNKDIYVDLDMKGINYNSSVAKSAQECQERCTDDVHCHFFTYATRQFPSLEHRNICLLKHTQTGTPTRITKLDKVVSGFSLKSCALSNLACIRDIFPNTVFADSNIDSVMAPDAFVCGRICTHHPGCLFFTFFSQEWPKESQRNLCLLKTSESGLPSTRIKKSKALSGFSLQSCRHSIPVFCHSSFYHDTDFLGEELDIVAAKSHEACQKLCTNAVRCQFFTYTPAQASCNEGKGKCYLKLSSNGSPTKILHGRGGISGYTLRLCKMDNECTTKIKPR

SMILES	IC50 [nM]
COc1cn(C(Cc2ccccc2)C(=O)Nc2ccc(C(=O)O)cc2)c(=O)cc1-c1cc(Cl)ccc1C(=O)C1CC1 (centres unmarked) [Example 41, 4-(2-(4-(5-chloro-2-(cyclopropanecarbonyl)phenyl)-5-methoxy-2-oxopyridin-1(2H)-yl)-3-phenylpropanamido)benzoic acid]	39
COc1cn(C(CC2(C)CC2)C(=O)Nc2ccc(C(=O)O)cc2)c(=O)cc1-c1cc(Cl)ccc1C(C)=O (centres unmarked) [Example 158, 4-(2-(4-(2-acetyl-5-chlorophenyl)-5-methoxy-2-oxopyridin-1(2H)-yl)-3-(1-methylcyclopropyl)propanamido)benzoic acid]	46
CCC(=O)c1ccc(Cl)cc1-c1cc(=O)n(C(Cc2ccccc2)C(=O)Nc2ccc3[nH]cnc3c2)cc1OC (centres unmarked) [Example 38, N-(1H-benzo[d]imidazol-5-yl)-2-(4-(5-chloro-2-propionylphenyl)-5-methoxy-2-oxopyridin-1(2H)-yl)-3-phenylpropanamide]	30
CCC(=O)c1ccc(Cl)cc1-c1cc(=O)n([C@@H](Cc2ccccc2)C(=O)Nc2ccc(C(N)=O)cc2)cc1OC [Example 26, (S)-4-(2-(4-(5-chloro-2-propionylphenyl)-5-methoxy-2-oxopyridin-1(2H)-yl)-3-phenylpropanamido)benzamide]	21
COc1cn(C(Cc2cccnc2)C(=O)Nc2ccc(C(=O)O)cc2)c(=O)cc1-c1cc(Cl)ccc1C(C)=O (centres unmarked) [Example 82, 4-(2-(4-(2-acetyl-5-chlorophenyl)-5-methoxy-2-oxopyridin-1(2H)-yl)-3-(pyridin-3-yl)propanamido)benzoic acid]	68
CCC(=O)c1ccc(Cl)cc1-c1cc(=O)n(C(Cc2ccccc2)C(=O)Nc2ccc(C(N)=O)cc2)cc1OC (centres unmarked) [Example 24, 4-(2-(4-(5-chloro-2-propionylphenyl)-5-methoxy-2-oxopyridin-1(2H)-yl)-3-phenylpropanamido)benzamide]	36
COc1cn([C@H](Cc2cccnc2)C(=O)Nc2ccc(C(=O)O)cc2)c(=O)cc1-c1cc(Cl)ccc1C(C)=O [Example 83, (R)-4-(2-(4-(2-acetyl-5-chlorophenyl)-5-methoxy-2-oxopyridin-1 (2H)-yl)-3-(pyridin-3-yl)propanamido)benzoic acid]	> 10000
COc1cn(C(Cc2ccccc2C)C(=O)Nc2ccc(C(=O)O)cc2)c(=O)cc1-c1cc(Cl)ccc1C(C)=O (centres unmarked) [Example 66, 4-(2-(4-(2-acetyl-5-chlorophenyl)-5-methoxy-2-oxopyridin-1(2H)-yl)-3-(o-tolyl)propan amido)benzoic acid]	34
COc1cn(C(Cc2ccc(F)cc2F)C(=O)Nc2ccc(C(=O)O)cc2)c(=O)cc1-c1cc(Cl)ccc1C(C)=O (centres unmarked) [Example 65, 4-(2-(4-(2-acetyl-5-chlorophenyl)-5-methoxy-2-oxopyridin-1(2H)-yl)-3-(2,4-difluorophenyl)propanamido)benzoic acid]	43
COCCC(C(=O)Nc1ccc(C(=O)O)cc1)n1cc(OC)c(-c2cc(Cl)ccc2C(C)=O)cc1=O (centres unmarked) [Example 147, 4-(2-(4-(2-acetyl-5-chlorophenyl)-5-methoxy-2-oxopyridin-1(2H)-yl)-4-methoxybutanamido)benzoic acid]	56
COc1cn(C(CC2CC2)C(=O)Nc2ccc(C(=O)O)cc2)c(=O)cc1-c1cc(Cl)ccc1C(C)=O (centres unmarked) [Example 167, 4-(2-(4-(2-acetyl-5-chlorophenyl)-5-methoxy-2-oxopyridin-1(2H)-yl)-3-cyclopropylpropanamido)benzoic acid]	92
COc1cn([C@@H](CCOC(C)(C)C)C(=O)Nc2ccc(C(N)=O)cc2)c(=O)cc1-c1cc(Cl)ccc1C(C)=O [Example 122, (S)-4-(2-(4-(2-acetyl-5-chlorophenyl)-5-methoxy-2-oxopyridin-1(2H)-yl)-4-(tert-butoxy)butanamido)benzamide]	100
CCC(=O)c1ccc(Cl)cc1-c1cc(=O)n(C(CCOC(C)(C)C)C(=O)Nc2ccc3[nH]c(C(=O)O)cc3c2)cc1OC (centres unmarked) [Example 119, 5-(4-(tert-butoxy)-2-(4-(5-chloro-2-propionylphenyl)-5-methoxy-2-oxopyridin-1(2H)-yl)butanamido)-1H-indole-2-carboxylic acid]	45
CCC(=O)c1ccc(Cl)cc1-c1cc(=O)n([C@H](CCOC(C)(C)C)C(=O)Nc2ccc3nccnc3c2)cc1OC [Example 115, (R)-4-(tert-butoxy)-2-(4-(5-chloro-2-propionylphenyl)-5-methoxy-2-oxopyridin-1(2H)-yl)-N-(quinoxalin-6-yl)butanamide]	> 10000
CNC(=O)c1ccc(NC(=O)[C@H](CCOC(C)(C)C)n2cc(OC)c(-c3cc(Cl)ccc3C(C)=O)cc2=O)cc1 [Example 123, (S)-4-(2-(4-(2-acetyl-5-chlorophenyl)-5-methoxy-2-oxopyridin-1(2H)-yl)-4-(tert-butoxy)butanamido)-N-methylbenzamide]	100
COc1cn(C(Cc2ccccc2)C(=O)Nc2ccc3ncncc3c2)c(=O)cc1-c1cc(Cl)ccc1C(C)=O (centres unmarked) [Example 40, 2-(4-(2-acetyl-5-chlorophenyl)-5-methoxy-2-oxopyridin-1(2H)-yl)-3-phenyl-N-(quinazolin-6-yl)propanamide]	38

The remaining molecules from weak to strong by IC50, led by results:

IC50 [nM]	SMILES
8210	COc1cn([C@H](Cc2ccn(C)n2)C(=O)Nc2ccc(C(=O)O)cc2)c(=O)cc1-c1cc(Cl)ccc1C(C)=O [Example 102, (R)-4-(2-(4-(2-acetyl-5-chlorophenyl)-5-methoxy-2-oxopyridin-1(2H)-yl)-3-(1-methyl-1H-pyrazol-3-yl)propanamido)benzoic acid]
5690	COc1cn([C@H](Cc2ccccc2)C(=O)Nc2ccc3nn(C)cc3c2)c(=O)cc1-c1cc(Cl)ccc1C(C)=O [Example 19, (R)-2-(4-(2-acetyl-5-chlorophenyl)-5-methoxy-2-oxopyridin-1(2H)-yl)-N-(2-methyl-2H-indazol-5-yl)-3-phenylpropanamide]
100	COc1cn(C(Cc2ccc(C)cc2)C(=O)Nc2ccc(C(=O)O)cc2)c(=O)cc1-c1cc(Cl)ccc1C(C)=O (centres unmarked) [Example 74, 4-(2-(4-(2-acetyl-5-chlorophenyl)-5-methoxy-2-oxopyridin-1(2H)-yl)-3-(p-tolyl)propanamido)benzoic acid]
100	COc1cn(C(Cc2c(Cl)cccc2Cl)C(=O)Nc2ccc(C(=O)O)cc2)c(=O)cc1-c1cc(Cl)ccc1C(C)=O (centres unmarked) [Example 76, 4-(2-(4-(2-acetyl-5-chlorophenyl)-5-methoxy-2-oxopyridin-1(2H)-yl)-3-(2,6-dichlorophenyl)propanamido)benzoic acid]
82	COc1cn(C(Cc2ccccc2)C(=O)Nc2ccc3[nH]cnc3c2)c(=O)cc1-c1cc(Cl)ccc1C(C)=O (centres unmarked) [Example 47, 2-(4-(2-acetyl-5-chlorophenyl)-5-methoxy-2-oxopyridin-1 (2H)-yl)-N-(1H-benzo[d]imidazol-5-yl)-3-phenylpropanamide]
73	COc1cn(C(Cc2ccccc2C#N)C(=O)Nc2ccc(C(=O)O)cc2)c(=O)cc1-c1cc(Cl)ccc1C(C)=O (centres unmarked) [Example 87, 4-(2-(4-(2-acetyl-5-chlorophenyl)-5-methoxy-2-oxopyridin-1(2H)-yl)-3-(2-cyanophenyl)propanamido)benzoic acid]
70	COc1cn(C(Cc2cnn(C)c2)C(=O)Nc2ccc(C(=O)O)cc2)c(=O)cc1-c1cc(Cl)ccc1C(C)=O (centres unmarked) [Example 103, 4-(2-(4-(2-acetyl-5-chlorophenyl)-5-methoxy-2-oxopyridin-1(2H)-yl)-3-(1-methyl-1H-pyrazol-4-yl)propanamido)benzoic acid]
66	CCC(=O)c1ccc(Cl)cc1-c1cc(=O)n(C(Cc2ccccc2)C(=O)Nc2ccc3cn[nH]c3c2)cc1OC (centres unmarked) [Example 27, 2-(4-(5-chloro-2-propionylphenyl)-5-methoxy-2-oxopyridin-1(2H)-yl)-N-(1H-indazol-6-yl)-3-phenylpropanamide]
54	COc1cn(C(Cc2ccccc2Cl)C(=O)Nc2ccc(C(=O)O)cc2)c(=O)cc1-c1cc(Cl)ccc1C(C)=O (centres unmarked) [Example 70, 4-(2-(4-(2-acetyl-5-chlorophenyl)-5-methoxy-2-oxopyridin-1 (2H)-yl)-3-(2-chlorophenyl)propanamido)benzoic acid]
47	COc1cn([C@@H](Cc2ccccc2)C(=O)Nc2ccc(C(=O)NC3CC3)cc2)c(=O)cc1-c1cc(Cl)ccc1C(C)=O [Example 43, (S)-4-(2-(4-(2-acetyl-5-chlorophenyl)-5-methoxy-2-oxopyridin-1 (2H)-yl)-3-phenylpropanamido)-N-cyclopropylbenzamide]
42	COC(=O)Nc1ccc(NC(=O)[C@H](Cc2ccccc2)n2cc(OC)c(-c3cc(Cl)ccc3C(C)=O)cc2=O)cc1 [Example 12, methyl (S)-(4-(2-(4-(2-acetyl-5-chlorophenyl)-5-methoxy-2-oxopyridin-1(2H)-yl)-3-phenylpropanamido)phenyl)carbamate]
36	CCCC(=O)c1ccc(Cl)cc1-c1cc(=O)n(C(Cc2ccccc2)C(=O)Nc2ccc(C(=O)O)cc2)cc1OC (centres unmarked) [Example 21, 4-(2-(4-(2-butyryl-5-chlorophenyl)-5-methoxy-2-oxopyridin-1 (2H)-yl)-3-phenylpropan amido)benzoic acid]
34	COc1cn(C(Cc2ccsc2)C(=O)Nc2ccc(C(=O)O)cc2)c(=O)cc1-c1cc(Cl)ccc1C(C)=O (centres unmarked) [Example 7, 4-(2-(4-(2-acetyl-5-chlorophenyl)-5-methoxy-2-oxopyridin-1 (2H)-yl)-3-(thiophen-3-yl)propanamido)benzoic acid]
